Reference: patent US9322066B2, “Predictors for cancer treatment” (priority 2011, dated 2016)

System: relapsed or refractory, rituximab-naive or -sensitive follicular B-cell NHL
Experiment: Time to next anti-lymphoma therapy, Vc-R vs rituximab study, by biomarker
Type: in vivo, human
Parameters: Median, Time to Next Anti-Lymphoma Therapy / Time to Next Anti-Lymphoma Therapy, Median: unit not given here
Excerpt: Non-Hodgkin lymphoma (NHL) encompasses several unique malignant lymphoid disease entities that vary in clinical behavior, morphologic appearance, immunologic, and molecular phenotype. […] A randomized, open-label, active-controlled, multicenter, multinational, prospective study to compare the efficacy and safety of the combination of bortezomib and rituximab (Vc-R) to single-agent rituximab in subjects who have relapsed or refractory, rituximab-naive or -sensitive follicular B-cell NHL was performed.
Subjects were centrally randomized to Treatment Groups A (Vc-R) or B (rituximab) in a 1:1 ratio taking into account the following stratification factors: • Follicular Lymphoma International Prognostic Index (FLIPI) score (low [0 or 1 factor], intermediate [2 factors], high [≧3 factors]); • Prior rituximab therapy (yes, no); • Time since last dose of anti-lymphoma therapy (≦1 year, >1 year); • Region (United States/Canada, European Union, Rest of World).
The following clinical endpoints were included in the analysis within each treatment group and an overall comparison was made with the biomarker-related endpoints: Progression-free survival, defined as the interval between the date of randomization and the date of progressive disease (PD) or death, whichever is first reported in the ITT population; overall survival; overall response rate (complete response [CR]+CR unconfirmed [CRu]+partial response [PR]); overall CR rate (CR+CRu); duration of response; time to next anti-lymphoma therapy; and treatment free interval.

[1] = CD68 POSITIVE PERIFOLLICULAR: 0-25, White, IRC Review
[2] = CD68 POSITIVE PERIFOLLICULAR: 0-25, ≦65 years old, IRC Review
[3] = CD68 POSITIVE PERIFOLLICULAR: 26-50, Other, IRC Review
[4] = CD68 POSITIVE PERIFOLLICULAR: >75, 1 Prior Line of Therapy, IRC Review
[5] = CD68 POSITIVE PERIFOLLICULAR: >75, European Union, IRC Review
[6] = CD68 POSITIVE PERIFOLLICULAR: >75, ≦65 years old, IRC Review
[7] = NOTCH/G_A1702P: MND, subgroup White, IRC review
[8] = NOTCH/I1681N: MND, subgroup White, IRC review
[9] = NOTCH/L1679P: MND, subgroup White, IRC review
[10] = NOTCH/L1679Q: MND, subgroup White, IRC review
[11] = NOTCH/L2458V: MND, subgroup White, IRC review
[12] = NOTCH/P2513L: MND, subgroup White, IRC review
[13] = NOTCH/P2515FS4: MND, subgroup White, IRC review
[14] = NOTCH/Q2441X: MND, subgroup White, IRC review
[15] = NOTCH/Q2460X: MND, subgroup White, IRC review
[16] = NOTCH/X26DEL: MND, subgroup White, IRC review
[17] = NOTCH/X26INS: MND, subgroup White, IRC review
[18] = NOTCH/X28DEL: MND, subgroup White, IRC review
[19] = NOTCH/X28INS: MND, subgroup White, IRC review
[20] = P27 % NUCLEI POSITIVE: 0-20, 1 Prior Line of Therapy, IRC Review
[21] = P27 % NUCLEI POSITIVE: 0-20, Ann Arbor Stage III, IRC Review
[22] = P27 % NUCLEI POSITIVE: 0-20, High Tumor Burden, IRC Review
[23] = P27 % NUCLEI POSITIVE: 0-20, ≦65 years old, IRC Review
[24] = P27 % NUCLEI POSITIVE: 30-50, High Tumor Burden, IRC Review
[25] = P27 % NUCLEI POSITIVE: 80-100, European Union, IRC Review
[26] = P27 SIGNAL INTENSITY: ≦1+, High Tumor Burden, IRC Review
[27] = P27 SIGNAL INTENSITY: ≧2+, 5 Prior Lines of Therapy, IRC Review
[28] = P27 SIGNAL INTENSITY: ≧2+, European Union, IRC Review
[29] = P27 SIGNAL INTENSITY: ≧2+, Prior Rituximab Therapy, IRC Review
[30] = P27 SIGNAL INTENSITY: ≧2+, White, IRC Review
[31] = P27 SIGNAL INTENSITY: ≧2+, ≦65 years old, IRC Review
[32] = P27 SIGNAL TENSITY: ≧2+, No Subgroup, IRC Review
[33] = P65 % NUCLEAR STAINING: 0, 1 Prior Line of Therapy, IRC Review
[34] = P65 % NUCLEAR STAINING: ≦5%, 2 Prior Lines of Therapy, IRC Review
[35] = P65 % NUCLEAR STAINING: ≦5%, 5 Prior Lines of Therapy, IRC Review
[36] = P65 % NUCLEAR STAINING: ≦5%, Prior Rituximab Therapy, IRC Review
[37] = P65 % NUCLEAR STAINING: ≦5%, ≦65 years old, IRC Review
[38] = P65 % POSITIVE CYTOPLASMIC SIGNAL: >90%, 1 Prior Line of Therapy, IRC Review
[39] = P65 % POSITIVE CYTOPLASMIC SIGNAL: >90%, >1 year since last anti- lymphoma treatment, IRC Review
[40] = P65 % POSITIVE CYTOPLASMIC SIGNAL: >90%, European Union, IRC Review
[41] = P65 % POSITIVE CYTOPLASMIC SIGNAL: >90%, Male, IRC Review
[42] = P65 % POSITIVE CYTOPLASMIC SIGNAL: >90%, No Subgroup, IRC Review
[43] = P65 % POSITIVE CYTOPLASMIC SIGNAL: >90%, White, IRC Review
[44] = P65 % POSITIVE CYTOPLASMIC SIGNAL: >90%, ≦65 years old, IRC Review
[45] = P65 INTENSITY CYTOPLASMIC SIGNAL: ≦1+, Ann Arbor Stage III, IRC Review
[46] = P65 INTENSITY CYTOPLASMIC SIGNAL: ≦1+, European Union, IRC Review
[47] = P65 INTENSITY CYTOPLASMIC SIGNAL: ≧2+, 1 Prior Line of Therapy, IRC Review
[48] = P65 INTENSITY CYTOPLASMIC SIGNAL: ≧2+, Female, IRC Review
[49] = P65 INTENSITY CYTOPLASMIC SIGNAL: ≧2+, White, IRC Review

What does the source list for rituximab?
Evt/N, Time to Next Anti-Lymphoma Therapy [1]: 19/27; Median, Time to Next Anti-Lymphoma Therapy [1]: 501; Evt/N, Time to Next Anti-Lymphoma Therapy [2]: 20/31; Median, Time to Next Anti-Lymphoma Therapy [2]: 332; Evt/N, Time to Next Anti-Lymphoma Therapy [3]: 4/4; Median, Time to Next Anti-Lymphoma Therapy [3]: 341; Evt/N, Time to Next Anti-Lymphoma Therapy [4]: 15/18; Median, Time to Next Anti-Lymphoma Therapy [4]: 437; Evt/N, Time to Next Anti-Lymphoma Therapy [5]: 13/17; Median, Time to Next Anti-Lymphoma Therapy [5]: 675; Evt/N, Time to Next Anti-Lymphoma Therapy [6]: 19/23; Median, Time to Next Anti-Lymphoma Therapy [6]: 437; Evt/N, Time to Next Anti-Lymphoma Therapy [7]: 97/152; Median, Time to Next Anti-Lymphoma Therapy [7]: 504; Evt/N, Time to Next Anti-Lymphoma Therapy [8]: 97/152; Median, Time to Next Anti-Lymphoma Therapy [8]: 504; Evt/N, Time to Next Anti-Lymphoma Therapy [9]: 97/152; Median, Time to Next Anti-Lymphoma Therapy [9]: 504; Evt/N, Time to Next Anti-Lymphoma Therapy [10]: 97/152; Median, Time to Next Anti-Lymphoma Therapy [10]: 504; Evt/N, Time to Next Anti-Lymphoma Therapy [11]: 89/140; Median, Time to Next Anti-Lymphoma Therapy [11]: 504; Evt/N, Time to Next Anti-Lymphoma Therapy [12]: 78/122; Median, Time to Next Anti-Lymphoma Therapy [12]: 504; Evt/N, Time to Next Anti-Lymphoma Therapy [13]: 99/154; Median, Time to Next Anti-Lymphoma Therapy [13]: 505; Evt/N, Time to Next Anti-Lymphoma Therapy [14]: 88/139; Median, Time to Next Anti-Lymphoma Therapy [14]: 501; Evt/N, Time to Next Anti-Lymphoma Therapy [15]: 85/131; Median, Time to Next Anti-Lymphoma Therapy [15]: 501; Evt/N, Time to Next Anti-Lymphoma Therapy [16]: 99/155; Median, Time to Next Anti-Lymphoma Therapy [16]: 505; Evt/N, Time to Next Anti-Lymphoma Therapy [17]: 101/159; Median, Time to Next Anti-Lymphoma Therapy [17]: 533; Evt/N, Time to Next Anti-Lymphoma Therapy [18]: 111/169; Median, Time to Next Anti-Lymphoma Therapy [18]: 504; Evt/N, Time to Next Anti-Lymphoma Therapy [19]: 115/174; Median, Time to Next Anti-Lymphoma Therapy [19]: 504; Evt/N, Time to Next Anti-Lymphoma Therapy [20]: 19/26; Median, Time to Next Anti-Lymphoma Therapy [20]: 434; Evt/N, Time to Next Anti-Lymphoma Therapy [21]: 14/16; Median, Time to Next Anti-Lymphoma Therapy [21]: 418; Evt/N, Time to Next Anti-Lymphoma Therapy [22]: 23/27; Median, Time to Next Anti-Lymphoma Therapy [22]: 220; Evt/N, Time to Next Anti-Lymphoma Therapy [23]: 26/34; Median, Time to Next Anti-Lymphoma Therapy [23]: 327; Evt/N, Time to Next Anti-Lymphoma Therapy [24]: 17/22; Median, Time to Next Anti-Lymphoma Therapy [24]: 421; Evt/N, Time to Next Anti-Lymphoma Therapy (P27 % NUCLEI POSITIVE: 60-70, 3 Prior Lines of Therapy, IRC Review): 1/6; Evt/N, Time to Next Anti-Lymphoma Therapy [25]: 29/41; Median, Time to Next Anti-Lymphoma Therapy [25]: 655; Evt/N, Time to Next Anti-Lymphoma Therapy [26]: 16/18; Median, Time to Next Anti-Lymphoma Therapy [26]: 220; Evt/N, Time to Next Anti-Lymphoma Therapy [27]: 5/6; Median, Time to Next Anti-Lymphoma Therapy [27]: 228; Evt/N, Time to Next Anti-Lymphoma Therapy [28]: 57/89; Median, Time to Next Anti-Lymphoma Therapy [28]: 649; Evt/N, Time to Next Anti-Lymphoma Therapy [29]: 60/88; Median, Time to Next Anti-Lymphoma Therapy [29]: 421; Evt/N, Time to Next Anti-Lymphoma Therapy [30]: 113/177; Median, Time to Next Anti-Lymphoma Therapy [30]: 533; Evt/N, Time to Next Anti-Lymphoma Therapy [31]: 103/153; Median, Time to Next Anti-Lymphoma Therapy [31]: 484; Evt/N, Time to Next Anti-Lymphoma Therapy [32]: 127/199; Median, Time to Next Anti-Lymphoma Therapy [32]: 533; Evt/N, Time to Next Anti-Lymphoma Therapy [33]: 54/79; Median, Time to Next Anti-Lymphoma Therapy [33]: 546; Evt/N, Time to Next Anti-Lymphoma Therapy [34]: 7/9; Median, Time to Next Anti-Lymphoma Therapy [34]: 225; Evt/N, Time to Next Anti-Lymphoma Therapy [35]: 3/3; Median, Time to Next Anti-Lymphoma Therapy [35]: 235; Evt/N, Time to Next Anti-Lymphoma Therapy [36]: 16/21; Median, Time to Next Anti-Lymphoma Therapy [36]: 232; Evt/N, Time to Next Anti-Lymphoma Therapy [37]: 19/29; Median, Time to Next Anti-Lymphoma Therapy [37]: 374; Evt/N, Time to Next Anti-Lymphoma Therapy [38]: 59/89; Median, Time to Next Anti-Lymphoma Therapy [38]: 550; Evt/N, Time to Next Anti-Lymphoma Therapy [39]: 69/117; Median, Time to Next Anti-Lymphoma Therapy [39]: 593; Evt/N, Time to Next Anti-Lymphoma Therapy [40]: 57/92; Median, Time to Next Anti-Lymphoma Therapy [40]: 552; Evt/N, Time to Next Anti-Lymphoma Therapy [41]: 51/72; Median, Time to Next Anti-Lymphoma Therapy [41]: 427; Evt/N, Time to Next Anti-Lymphoma Therapy [42]: 129/204; Median, Time to Next Anti-Lymphoma Therapy [42]: 505; Evt/N, Time to Next Anti-Lymphoma Therapy [43]: 113/179; Median, Time to Next Anti-Lymphoma Therapy [43]: 505; Evt/N, Time to Next Anti-Lymphoma Therapy [44]: 103/154; Median, Time to Next Anti-Lymphoma Therapy [44]: 484; Evt/N, Time to Next Anti-Lymphoma Therapy [45]: 10/11; Median, Time to Next Anti-Lymphoma Therapy [45]: 261; Evt/N, Time to Next Anti-Lymphoma Therapy [46]: 13/18; Median, Time to Next Anti-Lymphoma Therapy [46]: 409; Evt/N, Time to Next Anti-Lymphoma Therapy [47]: 54/85; Median, Time to Next Anti-Lymphoma Therapy [47]: 568; Evt/N, Time to Next Anti-Lymphoma Therapy [48]: 74/129; Median, Time to Next Anti-Lymphoma Therapy [48]: 537; Evt/N, Time to Next Anti-Lymphoma Therapy [49]: 109/176; Median, Time to Next Anti-Lymphoma Therapy [49]: 533; Evt/N, Time to Next Anti-Lymphoma Therapy (P65 INTENSITY CYTOPLASMIC SIGNAL: ≧2+, ≦65 years old, IRC Review): 101/152
